Experimental data published in PMC10582583, “The novel cyclophilin inhibitor C105SR reduces hepatic ischaemia–reperfusion injury via mitoprotection” (JHEP Reports, 2023).
Like-named read-outs stand apart in the source and are kept apart here.

Experiments:
CypD = CypD (Homo sapiens, UniProt P30405); assay: CypD PPIase activity, chymotrypsin-coupled assay; assay type: biochemical; settings: for inhibition of CypD PPIase activity by diastereoisomers: 10 μM (Fig. 2A); for IC50: Table 2, enzyme assay
[1] = system: isolated mouse liver mitochondria; assay: Ca2+-induced mitochondrial swelling assay; assay type: biochemical; settings: energised isolated mouse liver mitochondria
AML-12 cells [2] = assay: mPTP opening, CoCl2-calcein AM fluorescence-quenching assay, hypoxia/reoxygenation; assay type: cell-based, mouse; settings: for prevention of mPTP opening (loss of calcein fluorescence): 1 μM, 4 h hypoxia, 1 h reoxygenation
Procedure: We next evaluated the ability of compounds C105SR and C110SR to inhibit mPTP opening in cells. The hepatocyte cell line AML-12 was subjected to 4 h of hypoxia followed by 1 h of reoxygenation and mPTP opening was monitored using the CoCl2-calcein-acetoxymethyl ester (AM) fluorescence-quenching method.[19] Calcein-AM is a membrane permeable fluorophore which passively diffuses in all subcellular compartments including mitochondria. In the cell, the AM group of the fluorophore is cleaved by ubiquitous intracellular esterases, generating a hydrophilic product that is retained within the cell. The cells are then loaded with the divalent cobalt cation (Co^2+), which quenches calcein fluorescence in all subcellular compartments except the mitochondrial matrix, because the inner mitochondrial membrane is impermeable to cobalt. However, when mPTP is open, cobalt enters mitochondria and quenches mitochondrial calcein fluorescence. […]
Hypoxia/reoxygenation (H/R) in vitro model. AML-12 mouse hepatocyte line was obtained from American Type Culture Collection (ATCC) and maintained in DMEM/F12 culture medium at 37°C with 5% CO2. HepaRG human hepatocyte line was obtained from American Type Culture Collection (ATCC) and maintained in William’S E culture medium at 37°C with 5% CO2.When indicated, cells were incubated in phosphate buffered saline at 37°C in a hypoxic chamber filled with 94% N2, 1% O2, 5% CO2 for 4 h to mimic ischemic conditions. Then, cells were transferred to a CO2 incubator at 37°C in regular DMEM/F12 culture medium for 1 or 2 h under normoxic conditions (74% N2, 21% O2, 5% CO2). SMCypIs or vehicle (DMSO) were added during the hypoxia period, during the reoxygenation period, or during both. CsA and ALV were used as positive controls for hepatic protection against H/R injury.
Monitoring of mPTP opening. mPTP opening was monitored in AML-12 cells using the CoCl2-calcein AM fluorescence-quenching assay. Cells were loaded with 1 µM calcein-AM (green) for 20 min. Then, 1 mM CoCl2 was added and cells were incubated for another 10 min. Cells were washed and subjected to 4 h of hypoxia followed by 1 h of reoxygenation. Calcein fluorescence was measured using a spectrofluorimeter at excitation and emission wavelengths of 485 nm and 535 nm, respectively. Images were acquired using a standard inverted fluorescence microscope (Zeiss Axio, […]
media during the entire H/R period. Images shown are representative images of 12-18 images. […]
Optical density of purple formazan product was measured at 550 nm. […]

AML-12 cells [3] = assay: Propidium iodide staining, hypoxia/reoxygenation; assay type: cell-based, mouse; settings: 1 μM; 4 h hypoxia, 1 h reoxygenation
Procedure: To assess whether the new SMCypIs reduced mPTP opening-induced cell death, propidium iodide fluorescence was measured in cells that had been co-loaded with calcein-AM. As expected, the loss of calcein fluorescence in cells subjected to hypoxia/reoxygenation was associated with enhanced propidium iodide fluorescence (Fig. 3A and 3C).
Calcium retention capacity (CRC) assay. Isolated liver mitochondria (1 mg/mL) energized with 5 mM glutamate/malate were incubated in a buffer allowing respiration of mitochondria (100 mM KCl, 50 mM sucrose, 10 mM HEPES, 5 mM KH2PO4, pH 7.4 at 30°C) supplemented with 1 µM calcium green 5N fluorescent probe. Mitochondria were pulsed with sequential additions of CaCl2 (20 µM) until mPTP opening along with rapid calcium release happened. The calcium concentration in the extra-mitochondrial medium was monitored with a Jasco FP-6300 spectrofluorimeter (Jasco, Bouguenais, France) at 506 nm excitation and 532 nm emission wavelengths.
Mitochondrial swelling assay. Mitochondrial swelling was assessed by measuring changes in absorbance at 540 nm using a Jasco V-530 spectrophotometer (Bouguenais, France) equipped with magnetic stirring and thermostatic control (30°C). […]
Monitoring of mPTP opening. mPTP opening was monitored in AML-12 cells using the CoCl2-calcein AM fluorescence-quenching assay. […] Calcein fluorescence was measured using a spectrofluorimeter at excitation and emission wavelengths of 485 nm and 535 nm, respectively. Images were acquired using a standard inverted fluorescence microscope (Zeiss Axio, […]
Propidium iodide staining. […] Fluorescence was measured using an Infinite 200 Pro fluorescent plate reader (Tecan, Mannedorf, Switzerland) at excitation and emission wavelengths of 533 nm and 617 nm, respectively. Images were acquired using a standard inverted fluorescence microscope (Zeiss Axio, Oberkochen, Germany). […]
Cell viability assays. Lactate dehydrogenase (LDH) release in culture medium was assessed using the commercially non-radioactive CytoTox-96 kit (Promega, Madison, Wisconsin) following the manufacturer’s instructions. […]

[4] = Plasmatic and hepatic concentration of C105SR in mice; assay type: in vivo; settings: sc, mouse, 50 mg/kg by subcutaneous osmotic pump
Procedure: Briefly, 70% of the liver was subjected to 1 h of ischaemia followed by 6 h of reperfusion, as recently described.[16] C105SR was administered using osmotic pumps at a dose of 50 mg/kg. […]
simulation was performed using @TOME‐2 server with no constraint. The images were generated using PyMOL and MarvinSketch.
Determination of plasmatic and hepatic concentration of C105SR. Mice (10-12 weeks-old, n=6) were anesthetized with isoflurane and subcutaneously implanted with Alzet® osmotic pump containing C105SR (50 mg/kg) or vehicle. 24h after, the blood and the liver were collected. C105SR in plasma and liver homogenates was extracted with cold acetonitrile containing 0.1% of acetic acid and centrifugation at 13,000 x g for 10 min at 4 °C. C105SR dosage was carried out by tandem mass spectrometric detection with a TSQ QUANTIS® mass spectrometer (ThermoFisher Scientific, Villebon-sur-Yvette, France), with an electrospray ionization source (ESI) which was set in positive electro-spray ionization (ESI+). The acquired data were processed using Trace Finder® software version 4.1 (Thermo Fisher Scientific, Villebon-sur-Yvette, France). Optimization of the MS conditions has been performed by single direct infusion of reference standards of the analyte. Two […]

Chain of CypD (P30405 30-207): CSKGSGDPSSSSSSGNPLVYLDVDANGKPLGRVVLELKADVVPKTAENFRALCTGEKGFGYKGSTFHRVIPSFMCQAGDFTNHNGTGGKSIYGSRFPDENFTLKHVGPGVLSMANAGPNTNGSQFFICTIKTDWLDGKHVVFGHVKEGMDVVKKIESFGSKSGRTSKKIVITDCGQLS

| Structure (SMILES) | inhibition of CypD PPIase activity by diastereoisomers (CypD) | IC50 (CypD) [nM] | IC50 [1] [nM] | prevention of mPTP opening (loss of calcein fluorescence) (AML-12 cells [2]) | propidium iodide fluorescence (AML-12 cells [3]) | inhibition of mPTP opening (AML-12 cells [2]; 0.5 μM) | concentration at 24 h ([4]; liver, read-out: hepatic concentration) [nM] | concentration at 24 h ([4]; plasma, read-out: plasmatic concentration) [nM] |
| --- | --- | --- | --- | --- | --- | --- | --- | --- |
| COc1ccc(Br)cc1[C@H](NC(=O)NCc1ccc(N)cc1)C(=O)N1CCC[C@@H]1c1cccc2ccsc12 [Compound C110SR, 1-(4-aminobenzyl)-3-((S)-2-((R)-2-(benzo[b]thiophen-7-yl)pyrrolidin-1-yl)-1-(5-bromo-2-methoxyphenyl)-2-oxoethyl)urea] | inhibited CypD PPIase activity | 8 ± 2 | 40 ± 5 | substantially prevented | low propidium iodide fluorescence |  |  |  |
| COc1ccc(Br)cc1[C@H](NC(=O)NCc1ccc2c(c1)CCCN2)C(=O)N1CCC[C@@H]1c1cccc2ccsc12 [Compound C105SR, 1-((S)-2-((R)-2-(benzo[b]thiophen-7-yl)pyrrolidin-1-yl)-1-(5-bromo-2-methoxyphenyl)-2-oxoethyl)-3-((1,2,3,4-tetrahydroquinolin-6-yl)methyl)urea] | inhibited CypD PPIase activity | 5 ± 1 | 9 ± 1 | substantially prevented | low propidium iodide fluorescence | inhibited | ~30 | ~30 |
